Legend:
[1] = test system: Chick Chorioallantoic Membrane (CAM); experiment: Chick chorioallantoic membrane (CAM) assay, o ring; assay type: in vivo; conditions: for Blood Vessel Density: o ring; for Anti-angiogenic properties: CAM assay, in words
Description: 8 groups with 10 embryos in each group were used in the experiment described below. Fresh fertile eggs were incubated for 3 days in a standard egg incubator at 37° C. for 3 days. On Day 3, eggs were cracked under sterile conditions and embryos were placed into 20×100 mm plastic plates and cultivated at 37° C. in an embryo incubator with a water reservoir on the bottom shelf. Air was continuously bubbled into the water reservoir using a small pump so that the humidity in the incubator is kept constant. On Day 6, a sterile silicon “o” ring was placed on each CAM and test compound dissolved in 0.5% methylcellulose was placed into each “o” ring in a sterile hood. Paclitaxel was used as a positive control. Embryos were returned to the incubator after addition of test material. Control embryos received 10 μL of vehicle alone. On Day 8, embryos were removed from the incubator and kept at room temperature while blood vessel density were determined under each “o” ring using an image capturing system at a magnification of 160×. The blood vessel density was measured using an angiogenesis scoring system in that arithmetic numbers 0 to 5 (or exponential numbers 1 to 32) are used to indicate number of blood vessels present at the treatment sites on the CAM. Number 5 represents the highest density and 0 represents no angiogenesis. The percent of inhibition at each dosing site was calculated using the score recorded for that site divided by the mean score obtained from the appropriate control samples for each individual experiment. The percent of inhibition for each dose of a given compound was calculated by pooling all results obtained for that dose from 8-10 embryos.

[2] = molecular target: T1, MIF (Homo sapiens, UniProt P14174); experiment: MIF cell lysate enzymatic inhibition; assay type: biochemical; conditions: cell lysates
T1 construct: the enzymatic activity of MIF present in cell lysates; endogenous in cells
T1 sequence (P14174 2-115 limits assumed): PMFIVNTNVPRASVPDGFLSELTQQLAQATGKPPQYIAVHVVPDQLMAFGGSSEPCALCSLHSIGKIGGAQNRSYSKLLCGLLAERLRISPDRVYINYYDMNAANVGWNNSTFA
Description: Normal or transformed cell lysates can be used to determine the concentration inhibiting the enzymatic activity of MIF present in cell lysates. Cells are cultured in the appropriate media to the required number of cells, collected, and lysed. Compounds to be characterized are solubilized in DMSO and serial dilutions are performed in order to obtain a range of concentrations including complete and no quantifiable inhibition.

[3] = Microsomal stability in human liver microsomes; assay type: in vitro ADME; conditions: both, human, microsomes, pH 7.4
Description: Stability in human liver microsomes was tested over […] at 37° C. using pooled mixed gender human liver microsomes. Liver microsomes were prepared at 1.0 mg/ml of microsomal protein in a 100 mM potassium phosphate pH 7.4 buffer with 1 mM NADPH. The media was incubated at 37° C. with the compound in solution in DMSO. The concentration of the compound was followed by LC/MS-MS as a function of time. Samples were assayed at t=0, 30, 60 and 120 minutes. Testosterone was used as a positive control. The same experiment was performed with mouse liver microsomes instead of human liver microsomes.

[4] = test system: pancreatic tumor model; experiment: Efficacy study in a pancreatic tumor model; assay type: in vivo; conditions: daily 40 mg/kg IP; for Survival: FIG. 10
Description: The activity of the compounds of the invention was investigated in a pancreatic tumor model using an experiment similar to the one described in EXAMPLE 69. Compounds ACT-MIF-002 and ACT-MIF-003 were dosed daily at 40 mg/kg via IP administration.
Lumbar regions of the control and treated groups were excised and sent for histopathological evaluation. […] In the example shown in FIG. 11, bone marrow of the vehicle treated mice is consistent with bone metastases (1) with evidence of surrounding skeletal muscle metastases from invading marrow tumor cells (2 and 3).

[5] = in vitro; assay type: in vitro ADME; conditions: human, plasma, Human Plasma Protein Binding % Bound
Excerpt: Plasma protein binding was ascertained using dialysis equilibrium methods known in the art.

[6] = Pharmacokinetics parameters in rats; assay type: in vivo; conditions: rat, plasma; for Vd: intravenous, read-out: Volume of distribution; for clearance: iv, after i.v. administration; for half-life: read-out: Terminal plasma half-life (converted)
Description: The pharmacokinetic parameters of several compounds were investigated in rodents. Both oral and iv administration were investigated in rats. Blood samples were collected over time; plasma was analyzed using an LC/MS-MS method. Pharmacokinetic parameters were calculated using Win-NonLin. Terminal plasma half-lives were 7.10 hr for ACT-MIF-001, 1.66 hr for ACT-MIF-002, and 1.50 hr for ACT-MIF-003. […] The volume of distribution values were 72666 mL/kg for ACT-MIF-001, 2118 mL/kg for ACT-MIF-002, and 1926 mL/kg for ACT-MIF-003.

[7] = test system: MDR1-MDCK monolayers; experiment: MDR1-MDCK cell permeability and transport; assay type: in vitro ADME; conditions: for Efflux: class in words
Description: (§1) Cell permeability and transport mechanisms in Caco-2 and MDR1-MDCK monolayers experiments were performed in triplicate in the apical-to-basolateral and basolateral-to-apical direction using […]® wells containing either Caco-2 or MDR1-MDCK monolayers. A modified Hanks buffer pH 7.4 was used in both reservoir and receiver wells with the addition of 1% BSA in the receiver side. Confluent monolayers were used and their integrity was verified using reference compounds (Atenolol as a low permeability reference compound and Propanolol as a high permeability reference compound). A sample in the basolateral and apical sides was taken after 2 hours and the concentration measured by LC/MS-MS.

[8] = test system: Caco-2 monolayers; experiment: Caco-2 cell permeability and transport; assay type: in vitro ADME; parameters: Caco-2 Permeability Papp B-A / Caco-2 Permeability Papp A-B: unit not given here; conditions: for Caco-2 Permeability Papp A-B: apical-to-basolateral
Description: as §1

[9] = test system: Du 145; experiment: Inhibition of tumor cells proliferation (CellTiter Glo); assay type: cell-based; conditions: Homo sapiens, 72 hours
Description: Inhibition of the proliferation of tumor cells was investigated in vitro in several tumor cell lines. Cells of the desired tumor cell line were plated at 2×10^5 cells/ml in 96 well plates. Twice the indicated concentrations of the compounds of the invention were added to cells the following day in an equal volume of media. 72 hours later, cells were lysed and subjected to ATP determination using the CellTiter Glo-Luminescent Cell Viability Assay kit (Promega, Madison, Wis.). Experiments were done in triplicate. Results for the inhibition of cells proliferation are reported as IC50 (the concentration leading to a 50% inhibition of proliferation of the cell population) and are listed in Table 6. FIGS. 3 and 4 show bar graphs comparing the IC50s of specific embodiments of compounds of the invention across multiple tumor cell lines.

SMILES	Blood Vessel Density ([1]; 0.3 nM per CAM)	Blood Vessel Density ([1]; 3 nM per CAM)	Blood Vessel Density ([1]; 30 nM per CAM)	Anti-angiogenic properties [1]	IC50 [2] [µM]	Metabolic Stability in Human Microsomes % Remaining ([3]; 0 h) [%]	Metabolic Stability in Human Microsomes % Remaining ([3]; 1 h) [%]	Body weight and clinical signs of toxicity [4]	Metastatic tumor burden [4]	Survival [4]	fraction unbound [5]	Vd [6] [L/kg]	clearance [6] [mL/min/kg]	half-life [6] [h]	Brain penetration classification [7]	P-gp Substrate [7]	Efflux [7]	Caco-2 Permeability Class [8]	Caco-2 Permeability Papp A-B ([8]; pH 7.4, 2 hours)	IC50 [9] [µM]	further results
COc1ccc(-c2cc(I)ncn2)c(F)c1 [ACT-MIF-002, 4-Iodo-6-(2-fluoro-4-methoxyphenyl)pyrimidine]	9.4 ± 2.4	8.6 ± 2.6	4.4 ± 1.3	high anti-angiogenic properties	0.07	100	<2	no body weight loss and no clinical signs of toxicity	limited the metastatic tumor burden	significant impact on survival	0.021	2.12	132	1.66	Low	No	High	Low	0.2	24.9	Bone metastases, histopathology of lumbar region ([4]; FIG. 11): no evidence of bone metastases; Caco-2 Efflux [8]: 1.7
Fc1ccccc1-c1cc(I)ncn1 [ACT-MIF-003, 4-Iodo-6-(2-fluorophenyl)pyrimidine]	11.6 ± 1.2	4.2 ± 1.2	4.1 ± 0.7	high anti-angiogenic properties	0.2	100	57	no body weight loss and no clinical signs of toxicity	limited the metastatic tumor burden	significant impact on survival	0.038	1.93	197	1.5	High	No	High	High	2.1	16.5	Caco-2 Permeability Papp B-A ([8]; basolateral-to-apical, pH 7.4, 2 hours): 2.6
